Assay results taken from article PMC7562955 (Nature Communications, 2020).
In brackets after ≈: the same amount, converted by molar mass. Like-named read-outs stand apart in the source and are kept apart here.

How the values were obtained:
TLR7 = target: T1, TLR7 (Homo sapiens, UniProt Q9NYK1); test: Human TLR7 reporter gene inhibitory activity assay (NF-κB/SEAP HEK293); type: cell-based; parameters: host or cells: HEK293 (TLR7/NF-κB/SEAPorter); settings: for IC50 / human TLR7 activity, reporter signal: R848 200 nM
T1 sequence (Q9NYK1 27-1049): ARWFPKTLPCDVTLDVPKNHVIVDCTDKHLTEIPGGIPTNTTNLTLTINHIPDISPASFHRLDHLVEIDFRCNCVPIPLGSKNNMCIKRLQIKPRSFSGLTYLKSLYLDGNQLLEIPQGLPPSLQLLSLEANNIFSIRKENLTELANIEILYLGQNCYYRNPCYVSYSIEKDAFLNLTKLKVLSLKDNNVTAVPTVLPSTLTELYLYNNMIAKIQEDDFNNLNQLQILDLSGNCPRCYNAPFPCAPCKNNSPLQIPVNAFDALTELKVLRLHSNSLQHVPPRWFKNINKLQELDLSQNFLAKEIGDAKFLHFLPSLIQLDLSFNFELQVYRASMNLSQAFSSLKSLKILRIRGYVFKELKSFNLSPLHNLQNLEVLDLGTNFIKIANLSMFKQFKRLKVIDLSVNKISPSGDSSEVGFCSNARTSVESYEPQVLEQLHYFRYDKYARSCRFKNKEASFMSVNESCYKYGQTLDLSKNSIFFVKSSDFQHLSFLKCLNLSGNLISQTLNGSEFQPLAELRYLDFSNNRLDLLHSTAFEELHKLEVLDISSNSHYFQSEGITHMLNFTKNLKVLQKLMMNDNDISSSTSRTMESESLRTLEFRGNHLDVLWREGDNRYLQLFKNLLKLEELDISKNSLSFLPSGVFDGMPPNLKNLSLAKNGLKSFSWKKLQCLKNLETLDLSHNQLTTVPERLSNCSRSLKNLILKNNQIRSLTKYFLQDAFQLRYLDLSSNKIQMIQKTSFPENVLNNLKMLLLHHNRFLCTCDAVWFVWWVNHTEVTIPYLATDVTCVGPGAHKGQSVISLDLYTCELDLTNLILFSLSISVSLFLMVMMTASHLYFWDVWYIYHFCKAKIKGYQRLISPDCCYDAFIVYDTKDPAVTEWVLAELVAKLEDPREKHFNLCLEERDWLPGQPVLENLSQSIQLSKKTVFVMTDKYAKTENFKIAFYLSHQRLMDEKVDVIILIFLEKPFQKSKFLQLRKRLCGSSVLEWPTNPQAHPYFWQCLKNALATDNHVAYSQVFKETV
Experimental: Compounds were dissolved in dimethyl sulfoxide. Before stimulation with compound, Human TLR7 reporter cell line (TLR7/NF-κB/SEAPorter^TM HEK293 cell, Novus Biological, USA), human TLR8 reporter cell line (TLR8/NF-κB/SEAPorter^TM HEK293 cell, Novus Biological), and human TLR9 reporter cell line (TLR9/NF-κB/SEAPorter^TM HEK293 cell, Novus Biological) were seeded in 96-well microtiter plate (AGC techno glass, Japan) at 5 × 10^4 cells/well in DMEM (GIBCO, United Kingdam) with 10 % fetal bovine serum (GIBCO), and 10 ug/ml Blastcidin S HCl (GIBCO) and incubated at 37 °C in 5% CO2. The plates were incubated over-night and then stimulated with various concentrations of compound. […] After 30 min, R848 (human TLR7/8 ligand, synthesized at Sumitomo Dainippon Pharma, Japan) or CpG2006 (human TLR9 ligand, Hokkaido System Science Co., Ltd., Japan) added to each well, wherein each final concentration were adjusted to 200 nM R848 (human TLR7), 30 μM R848 (human TLR8), or 500 nM CpG2006 (human TLR9). The plates were then incubated an additional 20 ± 1 h at 37 °C in 5% CO2 and then the secreted embryonic alkaline phosphatase (SEAP) activity was measured as activation of human TLR7, 8, and 9. The SEAP activity was evaluated as follows: pNPP (Invitrogen, USA) was added to the incubated sample (50 μl/well); after 15 min, 4 M sodium hydroxide solution (nacalai tesque, Japan) was added thereto (50 μl/well) to quench the reaction; and the absorbance of each sample was measured at 405 nm with microplate reader SpectraMax M4 (Molecular Devices, USA).

[1] = Solubility measurement in isotonic buffer; type: physicochemical; settings: isotonic disodium hydrogen phosphate/citric acid buffer, 25 °C, aqueous buffer, kinetic from dmso stock; pH 7.4 buffer
Experimental: Compound was dissolved in dimethyl sulfoxide at 10 mM. A 1.75% disodium hydrogen phosphate aqueous solution and a 5.53% citric acid aqueous solution were mixed while monitoring with a pH meter to prepare an isotonic buffer solution having a pH of 7.4. The dimethyl sulfoxide solution and the isotonic buffer solution of pH 7.4 was mixed and shaken at 110 rpm for 90 min at 25 °C by a constant temperature incubator shaker. After standing for 16–20 h, the mixture was centrifuged to precipitate insoluble matter, and the supernatant was collected. Separately, standard solutions of the compound were prepared by dissolving the compound in a mixture of acetonitrile and water (1:1). The analytical sample and the standard solutions were measured by UHPLC-UV (Waters, USA). The degree of solubility was calculated by comparing the peak area of the analytical sample with standard solutions.

[2] = read-out: TLR7 inhibitory activity IC50

Row | IC50 (TLR7; read-out: TLR7 inhibitory potency IC50) [nM] | Structure (SMILES) | human TLR7 activity, reporter signal (TLR7; compound 0.0001 nM (as headed)) | human TLR7 activity, reporter signal (TLR7; compound 0.001 nM (as headed)) | human TLR7 activity, reporter signal (TLR7; compound 0.003 nM (as headed)) | human TLR7 activity, reporter signal (TLR7; compound 0.01 nM (as headed)) | human TLR7 activity, reporter signal (TLR7; compound 0.03 nM (as headed)) | human TLR7 activity, reporter signal (TLR7; compound 0.1 nM (as headed)) | human TLR7 activity, reporter signal (TLR7; compound 0.3 nM (as headed)) | human TLR7 activity, reporter signal (TLR7; compound 1 nM (as headed)) | human TLR7 activity, reporter signal (TLR7; compound 3 nM (as headed)) | human TLR7 activity, reporter signal (TLR7; compound 10 nM (as headed)) | human TLR7 activity, reporter signal (TLR7; compound 30 nM (as headed)) | human TLR7 activity, reporter signal (TLR7; compound 100 nM (as headed)) | solubility at 90 min [1] [µg/mL] | selectivity for TLR7 over TLR8 and TLR9 (TLR7) | IC50 (TLR7; [2]) [nM]
1 | 5000 | CCCCOc1nc(N)c2nc(-c3cccnc3)n(Cc3ccccc3)c2n1 [Cpd-5] | 2.067 | 1.898 | 1.879 | 1.8207 | 1.853 | 1.8291 | 1.986 | 1.7924 | 1.5762 | 1.162 | 0.6856 | 0.7605 | 0.3 (≈ 0.801 µM) |  | 
2 |  | CCOc1nc(N)c2nc(-c3cncc(F)c3)n(Cc3ccc(CN4C[C@@H]5C[C@H]4CN5C)cc3)c2n1 [Cpd-6] | 1.983 | 1.907 | 1.643 | 1.354 | 0.8446 | 0.3393 | 0.1771 | 0.006275 | -0.01137 | -0.02343 | -0.03198 | -0.04843 | > 150 | high TLR7 selectivity | 25
3 |  | CCOc1nc(C)c2nc(-c3cncc(F)c3)n(Cc3ccc(CN4C[C@@H]5C[C@H]4CN5C)cc3)c2n1 [Cpd-7] | 1.983 | 1.718 | 1.528 | 1.179 | 0.5917 | 0.1271 | 0.01692 | -0.02107 | -0.03277 | -0.02908 | -0.03703 | -0.01692 | > 150 | high TLR7 selectivity | 15
4 |  | CCN(CCO)CCCC(C)Nc1ccnc2cc(Cl)ccc12 (stereo not drawn) [HCQ, hydroxychloroquine, reference compound] | 1.977 |  |  | 1.7427 | 1.684 | 1.7194 | 1.681 | 1.5856 | 1.338 | 1.109 | 0.2449 | 0.0133 |  |  | 
